According to US20170252350A1, “SMALL MOLECULE IRE1-ALPHA INHIBITORS” (Cornell University, priority 2016, published 2017):
Where “and” joins values, the source holds several entries; their conditions need not be identical. Equal values may be shown once.

Molecular target: T1, IRE1α (Homo sapiens, UniProt O75460)
T1 construct: purchased SignalChem
Assay: In vitro FRET assay of IRE1α endoribonuclease activity (XBP1 RNA hairpin probe)
Assay type: biochemical
Conditions: SignalChem IRE1α protein 2 nM, fluorescence read over 30 minutes
Text: To evaluate potential small molecule IRE1 inhibitors, a Förster resonance energy transfer (FRET)-based small molecule IRE1 screening system was used. In brief, a small XBP1-mimetic RNA hairpin containing sequence features required for IRE1α-mediated splicing has been synthesized with the fluorophore 6FAM attached to the 5′ end and the quenching dye Black Hole Quencher 1 (BHQ1) attached to the 3′ end. When the hairpin is intact, 6FAM fluorescence is completely absorbed by BHQ1; however, IRE1α-mediated cleavage of the RNA hairpin leads to an increase in the fluorescence signal. The inventors also incorporated a point mutant version of this same RNA hairpin that is resistant to IRE1α-mediated cleavage to control for non-specific RNAse contamination (FIG. 2).
To perform the in vitro FRET assay, 1× complete assay buffer (CAB; […], 50 mM sodium citrate pH 7.15, 1 mM magnesium acetate, 0.02% tween 20) was used to dilute SignalChem IRE1α protein to a final concentration of 2 nM. Selected compounds were serially diluted with DMSO in a non-binding black 384-well plate for a total of 15 μl in each well. 2 μl of the serially diluted compound or DMSO control were then added to new wells containing 98 μl of 1×CAB, for a total volume of 100 μl, 10 μl of which were then transferred to wells of a new plate. 5 μof the diluted IRE1α was then added to each well. 5 μl of a […] XBP1 RNA probe was then added to each well. Fluorescence was then read over 30 minutes in kinetic mode (485/515 nm).
Two RNA probes were used, XBP1 wildtype (CAUGUCCGCAGCACAUG; SEQ ID NO: 1) which is able to be spliced by active IRE1α or XBP1 mutant (CAUGUCCCCAGCACAUG; SEQ ID NO: 2) which is unable to be spliced. Each probe contained a 5′ 6-FAM modification and a 3′ IOWA Black FQ modification, […]

T1 sequence (O75460 19-977): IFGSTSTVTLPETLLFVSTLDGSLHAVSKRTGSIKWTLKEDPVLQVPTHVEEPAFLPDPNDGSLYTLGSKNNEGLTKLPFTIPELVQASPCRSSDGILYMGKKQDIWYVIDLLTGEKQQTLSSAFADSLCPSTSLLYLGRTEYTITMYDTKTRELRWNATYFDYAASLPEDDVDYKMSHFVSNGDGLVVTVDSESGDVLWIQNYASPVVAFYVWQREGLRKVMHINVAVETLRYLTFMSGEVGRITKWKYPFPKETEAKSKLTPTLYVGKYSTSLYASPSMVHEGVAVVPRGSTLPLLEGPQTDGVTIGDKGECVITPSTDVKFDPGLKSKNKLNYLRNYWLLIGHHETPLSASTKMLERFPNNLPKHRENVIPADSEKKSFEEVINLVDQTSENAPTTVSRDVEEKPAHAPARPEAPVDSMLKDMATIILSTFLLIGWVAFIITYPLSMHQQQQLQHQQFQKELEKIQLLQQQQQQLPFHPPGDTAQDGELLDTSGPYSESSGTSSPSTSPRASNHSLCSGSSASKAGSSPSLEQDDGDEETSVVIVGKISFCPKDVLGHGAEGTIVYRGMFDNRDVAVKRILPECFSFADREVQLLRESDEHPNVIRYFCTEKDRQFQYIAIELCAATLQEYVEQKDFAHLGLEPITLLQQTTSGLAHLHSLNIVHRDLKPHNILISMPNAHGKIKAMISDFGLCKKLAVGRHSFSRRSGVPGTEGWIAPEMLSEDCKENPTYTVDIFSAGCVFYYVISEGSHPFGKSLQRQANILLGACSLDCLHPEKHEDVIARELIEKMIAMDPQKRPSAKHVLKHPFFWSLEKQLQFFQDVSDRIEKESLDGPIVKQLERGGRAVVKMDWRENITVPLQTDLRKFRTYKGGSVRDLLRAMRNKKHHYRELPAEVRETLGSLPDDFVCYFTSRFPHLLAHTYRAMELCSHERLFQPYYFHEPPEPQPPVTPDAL

CN1CCN(Cc2ccc(NC(=O)Nc3cc(C#Cc4cccnc4)n(C)n3)cc2C(F)(F)F)CC1 [Compound A1] and CN1CCN(Cc2ccc(NC(=O)Nc3cc(C#Cc4ccncc4)n(C)n3)cc2C(F)(F)F)CC1 [Compound A10] cannot be ordered by EC50: at most 5 µM for the first, at most 5 µM for the second.

CN1CCN(Cc2ccc(NC(=O)Nc3cc(C#Cc4ccc(N)nc4)n(C)n3)cc2C(F)(F)F)CC1 [Compound A2] and CN1CCN(Cc2ccc(NC(=O)Nc3cc(C#Cc4ccc(C#N)nc4)n(C)n3)cc2C(F)(F)F)CC1 [Compound A17] cannot be ordered by EC50: at most 5 µM for the first, at most 5 µM for the second.

CN1CCN(Cc2ccc(NC(=O)Nc3cc(C#Cc4cnc5cccnn45)n(C)n3)cc2C(F)(F)F)CC1 [Compound A3] and CN1CCN(Cc2ccc(NC(=O)Nc3cc(C#Cc4cnc5ccccn45)n(C)n3)cc2C(F)(F)F)CC1 [Compound A4] cannot be ordered by EC50: at most 5 µM for the first, at most 5 µM for the second.

CN1CCN(Cc2ccc(NC(=O)Nc3cc(C#Cc4cnc5cnccn45)n(C)n3)cc2C(F)(F)F)CC1 [Compound A5] and CN1CCN(Cc2ccc(NC(=O)Nc3cc(C#Cc4cncc5nccn45)n(C)n3)cc2C(F)(F)F)CC1 [Compound A6] cannot be ordered by EC50: at most 5 µM for the first, at most 5 µM for the second.

CN1CCN(Cc2ccc(NC(=O)Nc3cc(C#Cc4ccnc(N)c4)n(C)n3)cc2C(F)(F)F)CC1 [Compound A7] and CN1CCN(Cc2ccc(NC(=O)Nc3cc(C#Cc4cncc(N)c4)n(C)n3)cc2C(F)(F)F)CC1 [Compound A21] cannot be ordered by EC50: 5 to 50 µM for the first, at most 5 µM for the second.

CN1CCN(Cc2ccc(NC(=O)Nc3cc(C#Cc4cnc(N)cn4)n(C)n3)cc2C(F)(F)F)CC1 [Compound A9] and CN1CCN(Cc2ccc(NC(=O)Nc3cc(C#Cc4cnccn4)n(C)n3)cc2C(F)(F)F)CC1 [Compound A19] cannot be ordered by EC50: at most 5 µM for the first, at most 5 µM for the second.

CN1CCN(Cc2ccc(NC(=O)Nc3cc(C#Cc4cc(N)[nH]n4)n(C)n3)cc2C(F)(F)F)CC1 [Compound A11] and CN1CCN(Cc2ccc(NC(=O)Nc3cc(C#Cc4ccccn4)n(C)n3)cc2C(F)(F)F)CC1 [Compound A16] cannot be ordered by EC50: at most 5 µM for the first, at most 5 µM for the second.

CN1CCN(Cc2ccc(NC(=O)Nc3cc(C#Cc4cn[nH]c4)n(C)n3)cc2C(F)(F)F)CC1 [Compound A12] and CN1CCN(Cc2ccc(NC(=O)Nc3cc(C#Cc4cncn4C)n(C)n3)cc2C(F)(F)F)CC1 [Compound A13] cannot be ordered by EC50: at most 5 µM for the first, at most 5 µM for the second.

CN1CCN(Cc2ccc(NC(=O)Nc3cc(C#Cc4n[nH]c5cccnc45)n(C)n3)cc2C(F)(F)F)CC1 [Compound A14] and CN1CCN(Cc2ccc(NC(=O)Nc3cc(C#Cc4cc[nH]c(=O)c4)n(C)n3)cc2C(F)(F)F)CC1 [Compound A15] cannot be ordered by EC50: at most 5 µM for the first, 5 to 50 µM for the second.

First: CN1CCN(Cc2ccc(NC(=O)Nc3cc(C#Cc4ccc(N)cc4)n(C)n3)cc2C(F)(F)F)CC1 [Compound A18]
Second: Cn1nc(NC(=O)Nc2ccc(CN3CCN(CCO)CC3)c(C(F)(F)F)c2)cc1C#Cc1ccc(N)nc1 [Compound A22]
The EC50 of the first is higher: 50 to 100 µM for the first, at most 5 µM for the second. The second is the more potent here.

Cn1nc(NC(=O)Nc2cccc(C(F)(F)F)c2)cc1C#Cc1ccc(N)nc1 [Compound A20] and Cn1nc(NC(=O)Nc2ccc(CN3CCCCC3)c(C(F)(F)F)c2)cc1C#Cc1ccc(N)nc1 [Compound A24] cannot be ordered by EC50: at most 5 µM for the first, 5 to 50 µM for the second.

CN1CCN(Cc2ccc(NC(=O)Nc3nnc(C#Cc4ccc(N)nc4)s3)cc2C(F)(F)F)CC1 [Compound A23] and Cn1nc(NC(=O)Nc2ccc(CN3CCOCC3)c(C(F)(F)F)c2)cc1C#Cc1ccc(N)nc1 [Compound A25] cannot be ordered by EC50: at most 5 µM for the first, 5 to 50 µM for the second.

In the case of COc1cc(C#Cc2cc(NC(=O)Nc3ccc(CN4CCN(C)CC4)c(C(F)(F)F)c3)nn2C)ccn1 [Compound A8], the EC50 is reported as ≤ 5 µM and 5 to 50 µM.

System: myeloid dendritic cells
Assay: Lipid accumulation (BODIPY 493/503) in myeloid dendritic cells exposed to ovarian cancer ascites supernatants
Assay type: cell-based, mouse
Conditions: not given

In the case of vitamin E, the intracellular lipid accumulation is reported as “suppressed”.
